Experimental data reported in publication PMC6838683, “Discovery of Human Signaling Systems: Pairing Peptides to G Protein-Coupled Receptors” (Cell, 2019).
Read-outs that look alike come from different tables or passages of the source.

Key:
GPR55 = GPR55 (Homo sapiens, UniProt Q9Y2T6); experiment: Repeat of proposed literature pairing (mass redistribution and/or internalization); assay type: cell-based; set-up: hIL-2Ra signal peptide (N); expressed in transfected cells; details: target GPR55
Excerpt: (§1) DMR assays provide a single integrated readout of ligand-dependent cellular response, utilizing an optical biosensor in specialized microplates to detect wavelength shifts of reflected light as it passes through the biosensor and the lower portion of the cell (∼150-200 nm). As a signal pathway agnostic approach, DMR assays are well-suited to the study of GPCRs ([Fang et al., 2008], [Schröder et al., 2011]). The mass redistribution response (Δ picometer (pm)) likely reflects a number of intracellular events, including cytoskeletal rearrangement, protein trafficking and receptor internalization. […] After 3-5 min baseline recordings, peptides (10 μM) were added in duplicate wells using an electronic 384-channel Viaflo pipette (Integra Biosciences, Switzerland) and DMR responses were measured for 60 min at 22°C. […] Real-time data were processed using the BT to column converter MS-Excel macro (Corning) and analyzed in GraphPad Prism 7.0. DMR recordings in peptide screening experiments were buffer and solvent corrected and the area under the curve (AUC) was quantified. […]
(§2) A TR-FRET real-time internalization assay was used to examine peptide-dependent changes in orphan receptor localization as described previously ([Foster and Bräuner-Osborne, 2018]). […] For peptide screening analysis (both DMR and internalization assays), we calculated the area under the curve from the real-time traces. […]

GPR3 = details: target GPR3
BRS3 = experiment: Repeat of proposed literature pairing (mass redistribution and/or internalization); assay type: cell-based, human; details: target BRS3
GPR68 = experiment: as above; assay type: cell-based, human; details: target GPR68
NPY4R = experiment: β-arrestin recruitment (Tango), known peptide receptors; assay type: cell-based, human; details: endogenous ligand(s) included in peptide library
Excerpt: Supplement mmc6.xlsx, sheet "Peptide GPCR controls" | column: Confirmed?

human GPCRs = target: human GPCRs; set-up: method as in Guide to Pharmacology database; details: max reported value, ref Guide to Pharmacology database, cited from earlier work
Excerpt: Supplement mmc1.xlsx, sheet "HumanGPCRLigands" | column: pKi_value; pKd_value; pEC50_value; pIC50_value

PRRP = experiment: β-arrestin recruitment (Tango), known peptide receptors; assay type: cell-based, human
Excerpt: Supplement mmc6.xlsx, sheet "Peptide GPCR controls" | column: Confirmed?; Notes

NPSR = target: T1, NPSR (Homo sapiens, UniProt Q6W5P4); experiment: as above; assay type: cell-based; details: mean, n = 3
T1 construct: host or cells: HTLA cells (HEK293-derived)
Excerpt: (§3) Supplement mmc7.xlsx, sheet "Peptide validation data" | column: Emax; pEC50

OPRD1 = target: T2, OPRD1 (Homo sapiens, UniProt P41143); experiment: as above; assay type: cell-based; details: mean, n = 3
T2 construct: host or cells: HTLA cells (HEK293-derived)
Excerpt: as §3

GPR1 = target: T3, GPR1 (Homo sapiens, UniProt P46091); experiment: Repeat of proposed literature pairing (mass redistribution and/or internalization); assay type: cell-based; set-up: host or cells: HTLA cells (HEK293-derived)
T3 sequence (P46091 1-355): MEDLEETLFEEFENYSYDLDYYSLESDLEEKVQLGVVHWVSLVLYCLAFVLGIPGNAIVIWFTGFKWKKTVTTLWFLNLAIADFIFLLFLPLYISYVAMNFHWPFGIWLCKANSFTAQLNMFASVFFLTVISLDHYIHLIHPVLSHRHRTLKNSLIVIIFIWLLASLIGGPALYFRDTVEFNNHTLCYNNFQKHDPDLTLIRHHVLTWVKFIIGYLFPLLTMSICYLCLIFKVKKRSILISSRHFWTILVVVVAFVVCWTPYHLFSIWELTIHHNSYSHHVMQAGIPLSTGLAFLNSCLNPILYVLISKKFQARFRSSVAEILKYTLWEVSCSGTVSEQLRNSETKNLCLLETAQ
Excerpt: as §1, §2

MRGPRX2 = target: T4, MRGPRX2 (Homo sapiens, UniProt Q96LB1); experiment: as above; assay type: cell-based; details: repeat of literature pairing across multiple assays; cleavage variants CST-14 and SRIF-28 tested; Figure S7A
T4 construct: host or cells: HTLA cells (HEK293-derived)
T4 sequence (Q96LB1 1-330): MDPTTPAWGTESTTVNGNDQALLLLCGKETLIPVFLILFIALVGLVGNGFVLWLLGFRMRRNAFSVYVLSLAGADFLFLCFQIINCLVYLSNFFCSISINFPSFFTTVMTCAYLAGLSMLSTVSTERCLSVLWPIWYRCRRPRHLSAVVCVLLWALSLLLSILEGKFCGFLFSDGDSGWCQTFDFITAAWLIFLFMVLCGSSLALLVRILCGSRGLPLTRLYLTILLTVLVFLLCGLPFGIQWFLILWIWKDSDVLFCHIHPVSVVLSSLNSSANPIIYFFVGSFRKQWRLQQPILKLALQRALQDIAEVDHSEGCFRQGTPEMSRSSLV
Excerpt: as §1, §2

[1] = reported ligand tested on receptor-expressing cell line
[2] = receptor CMKLR1 (cml1_human, Q99788)

T1 sequence (Q6W5P4 whole entry): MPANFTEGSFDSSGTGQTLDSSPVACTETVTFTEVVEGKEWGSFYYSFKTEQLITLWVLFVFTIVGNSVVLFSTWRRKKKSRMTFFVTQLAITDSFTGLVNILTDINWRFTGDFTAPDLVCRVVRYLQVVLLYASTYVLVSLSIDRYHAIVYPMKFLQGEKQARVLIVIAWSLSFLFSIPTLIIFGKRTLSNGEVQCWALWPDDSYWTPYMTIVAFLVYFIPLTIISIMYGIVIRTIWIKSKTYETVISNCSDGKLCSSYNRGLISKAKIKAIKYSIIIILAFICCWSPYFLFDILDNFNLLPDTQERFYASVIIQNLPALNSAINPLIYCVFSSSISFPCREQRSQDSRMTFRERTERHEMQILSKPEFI
T2 sequence (P41143 whole entry): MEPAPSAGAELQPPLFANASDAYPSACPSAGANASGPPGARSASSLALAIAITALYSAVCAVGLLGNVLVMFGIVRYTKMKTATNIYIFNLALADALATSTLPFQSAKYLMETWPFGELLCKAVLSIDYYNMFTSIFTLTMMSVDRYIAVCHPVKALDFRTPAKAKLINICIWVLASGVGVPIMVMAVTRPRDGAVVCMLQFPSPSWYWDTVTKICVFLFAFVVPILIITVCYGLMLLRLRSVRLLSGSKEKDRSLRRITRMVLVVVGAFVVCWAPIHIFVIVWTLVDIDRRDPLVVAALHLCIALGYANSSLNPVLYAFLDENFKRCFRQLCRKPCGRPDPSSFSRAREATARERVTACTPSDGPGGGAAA
Sequence of GPR55 (Q9Y2T6 2-319 limits assumed): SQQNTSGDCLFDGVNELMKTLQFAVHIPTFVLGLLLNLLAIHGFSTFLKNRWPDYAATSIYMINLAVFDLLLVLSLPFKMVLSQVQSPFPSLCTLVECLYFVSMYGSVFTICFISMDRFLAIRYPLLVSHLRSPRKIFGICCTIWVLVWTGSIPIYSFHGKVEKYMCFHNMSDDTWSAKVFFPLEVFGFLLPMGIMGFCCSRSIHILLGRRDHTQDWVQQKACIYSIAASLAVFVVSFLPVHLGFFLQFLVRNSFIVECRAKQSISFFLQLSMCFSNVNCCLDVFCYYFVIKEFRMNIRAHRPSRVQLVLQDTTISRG

Cc1c(C(=O)NN2CCCCC2)nn(-c2ccc(Cl)cc2Cl)c1-c1ccc(I)cc1 [AM251]
Comment (response in DMR / internalization assays) (GPR55): Robust response
Active in DMR/internalization (GPR55; [1]): Yes

[Cl-].c1ccc2c(c1)[I+]c1ccccc1-2 [Diphenyleneiodonium chloride (DPI)]
Comment (response in DMR / internalization assays) (GPR3): Robust response in DMR, no response in internalization assay
Active in DMR/internalization (GPR3; [1]): Yes (DMR)

O[C@@](Cc1ncc(CC2(C(F)(F)F)CC2)[nH]1)(c1ccc(-n2cccn2)cc1)C(F)(F)F [MK-5046]
Comment (response in DMR / internalization assays) (BRS3): Robust response
Active in DMR/internalization (BRS3; [1]): Yes

Nc1nc(NCc2ccccc2)nc(-c2ccccc2CO)n1 [ZINC67740571 (ogerin)]
Comment (response in DMR / internalization assays) (GPR68): Robust response in DMR, no response in internalization assay
Active in DMR/internalization (GPR68; [1]): Yes (DMR)

Pancreatic hormone (PH)
Confirmed? (confirmation of b-arrestin recruitment) (NPY4R): No

Peptide YY (PYY)
Confirmed? (confirmation of b-arrestin recruitment) (NPY4R): No

PrRP-31
pKi_value (human GPCRs; receptor PRLHR (prlhr_human, P49683)): 9.2
Confirmed? (confirmation of b-arrestin recruitment) (PRRP; endogenous ligand(s) included in peptide library, Tango): Yes
Notes (b-arrestin recruitment response) (PRRP; screen and validation): No response in screen, small response in validation

SFRNGVGSGVKKTSF [Peptide 107]
Emax, Tango (fold over basal) (NPSR): 2.2 fold over basal
pEC50, Tango (fold over basal) (NPSR): 6.03

VLDQLSA [Peptide 25]
Emax, Tango (fold over basal) (OPRD1): 5.0 fold over basal
pEC50, Tango (fold over basal) (OPRD1): 5.58

chemerin [reference compound]
Peptide pairing for orphan receptor GPR1 (confirmed/unconfirmed) (GPR1; repeat of literature pairing): Confirmed peptide pairings for orphans
receptor-dependent activation by proposed ligand, GPR1 (GPR1; repeat of literature pairing across multiple assays, Figure S7A, Tables S5 and S7): selective receptor-dependent activation
pEC50_value (human GPCRs; [2]): 8.5
pKd_value (human GPCRs; [2]): 8.3

cortistatin
receptor-dependent activation by proposed ligand, MRGPRX2 (MRGPRX2): selective receptor-dependent activation

somatostatin [reference compound]
pKi_value (human GPCRs; receptor SSTR1 (ssr1_human, P30872)): 9.4
pKi_value (human GPCRs; receptor SSTR2 (ssr2_human, P30874)): 10.2
pKi_value (human GPCRs; receptor SSTR3 (ssr3_human, P32745)): 9.9
pKi_value (human GPCRs; receptor SSTR4 (ssr4_human, P31391)): 9.2
pKi_value (human GPCRs; receptor SSTR5 (ssr5_human, P35346)): 10.3
receptor-dependent activation by proposed ligand, MRGPRX2 (MRGPRX2): selective receptor-dependent activation
